Values after ≈ are worked out from the molar mass of the structure shown. Values joined by “and” are separate entries in the source; they are usually repeats but may differ in a detail not shown here. Equal entries are not always repeated. Each block holds one compound with its values, some of them ahead of it.
Tests used:
Experiment in all cases: ≥ marks a high value that may be exact or a test limit, other limits are often not marked, values filed in µg/mL are converted to µM
[1] = system: Klebsiella pneumoniae ATCC 13883
[2] = system: Pseudomonas aeruginosa ATCC 27853
Escherichia coli D31 = system: Escherichia coli D31
[3] = system: Candida albicans ATCC 14053
[4] = system: Staphylococcus aureus ATCC 25923
[5] = system: Cryptococcus neoformans L30
[6] = system: Trichophyton mentagrophytes
[7] = system: Cryptococcus neoformans L26
Trichophyton rubrum = system: Trichophyton rubrum
Candida albicans 01U = system: Candida albicans 01U
Candida albicans 38U = system: Candida albicans 38U
Candida parapsilosis = system: Candida parapsilosis
[8] = system: Escherichia coli ATCC 11775
[9] = system: Escherichia coli ATCC 25922
[10] = system: Enterococcus faecalis ATCC 29212
[11] = system: Escherichia coli ATCC 43827
Escherichia coli AS1.349 = system: Escherichia coli AS1.349
[12] = system: Enterobacter cloacae CGMCC 1.58
[13] = system: Enterococcus faecium CGMCC 1.2334
[14] = system: Staphylococcus aureus AS1.72
[15] = system: Enterococcus faecalis CGMCC 1.595
[16] = system: Pseudomonas aeruginosa CGMCC 1.860
[17] = system: Klebsiella pneumoniae subsp. pneumoniae CGMCC 1.176
[18] = system: Lactococcus lactis AS1.1690
[19] = system: Klebsiella aerogenes CGMCC 1.876
Bacillus cereus AS1.126 = system: Bacillus cereus AS1.126
[20] = system: Staphylococcus aureus 90857
[21] = system: Pseudomonas corrugata DSM 7228
[22] = system: Xanthomonas vesicatoria DSM 50861
[23] = system: Pseudomonas syringae pv. tomato DC3000
[24] = system: Pseudomonas syringae pv. syringae DSM 10604
[25] = system: Pectobacterium carotovorum subsp. carotovorum DSM 30168
[26] = system: Clavibacter michiganensis subsp. michiganensis DSM 46294
[27] = system: Acinetobacter baumannii ATCC 19606
Escherichia coli D21 = system: Escherichia coli D21
[28] = system: Aspergillus fumigatus ATCC 26430
[29] = system: Staphylococcus aureus II ATCC 6538P
[30] = system: Enterococcus faecalis ATCC 19433
[31] = system: Staphylococcus aureus DBFIQ S21
[32] = system: Listeria monocytogenes DBFIQ LM3
[33] = system: Staphylococcus epidermidis PIA 8400
[34] = system: Staphylococcus aureus ATCC 29213
[35] = system: Streptococcus pneumoniae BCRC 10794
[36] = system: Staphylococcus aureus BCRC 10780

- MIC [1]: 4.23 µM (≈ 17.3 µg/mL)
- MIC [2]: 8.64 µM (≈ 35.3 µg/mL)
- MIC (Escherichia coli D31): 4.23 µM (≈ 17.3 µg/mL)
- MIC [3]: 2.07 µM (≈ 8.47 µg/mL)
- MIC [4]: 8.64 µM (≈ 35.3 µg/mL)
Structure (SMILES): CC[C@H](C)[C@@H]1NC(=O)CNC(=O)[C@H](CCCCN)NC(=O)[C@H](CC(N)=O)NC(=O)[C@H](CCCNC(=N)N)NC(=O)[C@H](C(C)C)NC(=O)[C@@H](NC(=O)[C@H](CO)NC(=O)[C@@H](NC(=O)[C@@H]2CCCN2C(=O)[C@@H](N)CC(N)=O)C(C)C)CSSC[C@@H]2NC(=O)[C@H](CCCCN)NC(=O)[C@H](C(C)C)NC(=O)[C@H](C)NC(=O)[C@H](CCCNC(=N)N)NC(=O)CNC(=O)[C@H](C(C)C)NC(=O)[C@@H]3CSSC[C@H](NC1=O)C(=O)N[C@@H](C(C)C)C(=O)N1CCC[C@H]1C(=O)N[C@@H]([C@@H](C)CC)C(=O)N[C@@H](CCCNC(=N)N)C(=O)N[C@@H](CSSC[C@@H](C(=O)N[C@@H](CCCNC(=N)N)C(=O)N[C@@H](CCCCN)C(=O)N[C@@H](CCCCN)C(=O)O)NC2=O)C(=O)N1CCC[C@H]1C(=O)NCC(=O)N[C@@H](CO)C(=O)N[C@@H](CCSC)C(=O)N[C@@H](CCCCN)C(=O)N[C@@H](CCC(N)=O)C(=O)N[C@@H]([C@@H](C)CC)C(=O)NCC(=O)N[C@@H]([C@@H](C)O)C(=O)N3 [NPVSCVRNKGICVPIRCPGSMKQIGTCVGRAVKCCRKK]

- MIC [5]: ≥ 209 µM
- MIC [6]: ≥ 209 µM
- MIC [7]: ≥ 105 µM
- MIC (Trichophyton rubrum): 26.1 µM (≈ 32 µg/mL)
- MIC (Candida albicans 01U): ≥ 52.3 µM
- MIC (Candida albicans 38U): 26.1 µM (≈ 32 µg/mL)
- MIC (Candida parapsilosis): ≥ 209 µM
Structure (SMILES): CC[C@H](C)[C@H](NC(=O)[C@H](CC(C)C)NC(=O)[C@H](CCC(=O)O)NC(=O)[C@H](CO)NC(=O)[C@H](CCCN=C(N)N)NC(=O)[C@@H](N)CO)C(=O)N[C@H](C(=O)N[C@@H](Cc1cnc[nH]1)C(=O)N[C@@H](CCC(N)=O)C(=O)N[C@@H](CCCN=C(N)N)C(N)=O)C(C)C [SRSELIVHQR]

- MIC [8]: 22 µM (≈ 21.7 µg/mL)
- MIC [9]: 22 µM (≈ 21.7 µg/mL)
- MIC [10]: 44 µM (≈ 43.4 µg/mL)
- MIC [11]: 5 µM (≈ 4.94 µg/mL)
Structure (SMILES): NC(=O)CC[C@H](NC(=O)[C@H](Cc1c[nH]c2ccccc12)NC(=O)[C@H](CCCN=C(N)N)NC(=O)[C@@H](N)CCCN=C(N)N)C(=O)N[C@@H](Cc1c[nH]c2ccccc12)C(=O)N[C@@H](CCCN=C(N)N)C(=O)O [RRWQWR]

- MIC (Escherichia coli AS1.349): 25 µM (≈ 28.6 µg/mL)
- MIC [12]: ≥ 100 µM
- MIC [13]: 25 µM (≈ 28.6 µg/mL)
- MIC [14]: 25 µM (≈ 28.6 µg/mL)
- MIC [15]: ≥ 50 µM
- MIC [16]: 25 µM (≈ 28.6 µg/mL)
- MIC [17]: ≥ 100 µM
- MIC [18]: ≥ 50 µM
- MIC [19]: ≥ 100 µM
- MIC (Bacillus cereus AS1.126): 25 µM (≈ 28.6 µg/mL)
Structure (SMILES): NC(N)=NCCC[C@H](NC(=O)[C@H](Cc1cnc[nH]1)NC(=O)[C@H](Cc1c[nH]c2ccccc12)NC(=O)[C@H](Cc1ccccc1)NC(=O)[C@H](CCCN=C(N)N)NC(=O)[C@H](CCCN=C(N)N)NC(=O)[C@@H](N)Cc1c[nH]c2ccccc12)C(=O)O [WRRFWHR]

- MIC [20]: 6.25 µM (≈ 10.2 µg/mL)
- MIC [21]: 1.54 µM (≈ 2.5 µg/mL)
- MIC [22]: 3.08 µM (≈ 5 µg/mL)
- MIC [23]: 0.615 µM (≈ 0.999 µg/mL)
- MIC [24]: 6.15 µM (≈ 9.99 µg/mL)
- MIC [25]: 6.15 µM (≈ 9.99 µg/mL)
- MIC [26]: 3.08 µM (≈ 5 µg/mL)
Structure (SMILES): CC[C@H](C)[C@H](NC(=O)[C@H](CCCN=C(N)N)NC(=O)[C@@H](N)CC(C)C)C(=O)N[C@@H](CC(C)C)C(=O)N[C@@H](CCCN=C(N)N)C(=O)N[C@@H](CCCN=C(N)N)C(=O)N[C@@H](CC(C)C)C(=O)N[C@@H](CC(C)C)C(=O)N[C@@H](CCCN=C(N)N)C(=O)N[C@@H](CCCN=C(N)N)C(=O)N[C@@H](CC(C)C)C(=O)N[C@@H](Cc1ccccc1)C(N)=O [LRILRRLLRRLF]

- MIC [27]: 75 µM and 100 µM
- MIC (Escherichia coli D21): ≥ 50 µM
- MIC [9]: 100 µM (≈ 194 µg/mL)
- MIC [2]: 50 µM (≈ 96.8 µg/mL)
- MIC [28]: 6.2 µM and 3.1 µM
- MIC [29]: ≥ 50 µM and 31 µM
- MIC [30]: ≥ 100 µM
Structure (SMILES): CC(C)C[C@H](NC(=O)[C@H](CCCN=C(N)N)NC(=O)[C@H](CCCN=C(N)N)NC(=O)[C@H](CC(C)C)NC(=O)[C@H](CC(C)C)NC(=O)[C@H](CCCN=C(N)N)NC(=O)[C@H](CCCN=C(N)N)NC(=O)[C@H](CC(C)C)NC(=O)[C@H](CC(C)C)NC(=O)[C@H](CCCN=C(N)N)NC(=O)[C@H](CCCN=C(N)N)NC(=O)[C@H](CC(C)C)NC(=O)[C@H](C)NC(=O)[C@H](CC(=O)O)NC(=O)[C@@H](N)CC(=O)O)C(=O)O [DDALRRLLRRLLRRL]

- MIC [31]: 8.9 µM (≈ 16 µg/mL)
- MIC [32]: 17.8 µM (≈ 32.1 µg/mL)
Structure (SMILES): CC[C@H](C)[C@H](NC(=O)[C@H](C)NC(=O)[C@@H](NC(=O)[C@H](C)NC(=O)CN)[C@@H](C)O)C(=O)N[C@@H](CCCCN)C(=O)N[C@@H](CCC(N)=O)C(=O)N[C@H](C(=O)N[C@@H](CCCCN)C(=O)N[C@@H](CCCCN)C(=O)N[C@@H](CC(C)C)C(=O)N[C@@H](Cc1ccccc1)C(=O)N[C@@H](CCCCN)C(=O)N[C@@H](CCCCN)C(=O)N[C@@H](CCCCN)C(=O)NCC(=O)NCC(N)=O)C(C)C [GATAIKQVKKLFKKKGG]

- MIC [9]: 23 µM (≈ 31 µg/mL)
- MIC [2]: 23 µM and 46.8 µM
- MIC [33]: 23 µM and 11.9 µM
- MIC [10]: 186 µM (≈ 251 µg/mL)
- MIC [34]: 23 µM (≈ 31 µg/mL)
Structure (SMILES): CC[C@H](C)[C@H](NC(=O)[C@H](CCCCN)NC(=O)[C@@H](NC(=O)[C@H](CCCN=C(N)N)NC(=O)[C@H](CCCN=C(N)N)NC(=O)[C@@H](N)CCCN=C(N)N)[C@@H](C)CC)C(=O)N[C@@H](CCCN=C(N)N)C(=O)N[C@@H](Cc1c[nH]c2ccccc12)C(=O)N[C@@H](Cc1ccc(O)cc1)C(N)=O [RRRIKIRWY]

- MIC [35]: ≥ 94.9 µM
- MIC [36]: ≥ 94.9 µM
Structure (SMILES): CC[C@H](C)[C@H](NC(=O)[C@H](CCSC)NC(=O)[C@H](CCCCN)NC(=O)CNC(=O)[C@H](C)NC(=O)[C@H](Cc1cnc[nH]1)NC(=O)[C@H](Cc1ccccc1)NC(=O)[C@H](CC(C)C)NC(C)=O)C(=O)N[C@@H](Cc1cnc[nH]1)C(N)=O [LFHAGKMIH]

Source: DBAASP
